# Source: paper PMC8587869, “Evaluation of the Inhibitory Effects of Pyridylpyrazole Derivatives on LPS-Induced PGE2 Productions and Nitric Oxide in Murine RAW 264.7 Macrophages” (Molecules, 2021)
# Columns and labels:
# Type in all cases: cell-based, murine
# [1] = MTT assay for cell viability in RAW 264.7 macrophages; details: mouse, murine RAW 264.7 macrophages, mean ± SD of three experiments
# Description: (§1) Before screening the PGE2 and NO production inhibitory effects of the compounds, the compounds’ cytotoxicity was evaluated at 1 and 10 μM concentrations to make sure that the tested concentrations are safe enough and non-cytotoxic to avoid misleading results. All compounds were non-cytotoxic at 1 μM concentration, while by increasing concentration to 10 μM, all the target compounds except 1f, 1k, and 1m started showing cytotoxicity. […] The piperidinyl and the morpholino moieties seem to be unfavorable to avoid cytotoxicity in this series of compounds. page 9: Biological evaluation Cell culture and sample treatment, nitrite determination, PGE2 assay, and MTT assay for cell viability have been carried out following the reported procedures [Bioorg. Med. Chem. Lett. 2014, 24, 571 & Eur. J. Pharmacol. 2008, 584, 175]. Western blot RAW 264.7 macrophage cells were re-suspended in PRO-PREPTM protein extraction solution (Intron Biotechnology, Seoul, Korea) and incubated with 20 min at 4 °C. The cell debris was removed by microcentrifugation, and the supernatants were quickly frozen. The protein concentration was determined using the Bio-Rad protein assay reagent according to the manufacture’s instruction. Cellular proteins were electroblotted onto a PVDF membrane following separation on 8-12% SDS-polyacrylamide gel electrophoresis. The immunoblot was incubated with blocking solution (5% skimmed milk) at room temperature for 1 h, followed by incubation overnight with a primary antibody at 4 °C. The blots were washed four times with a Tween 20/Tris-buffered saline (T/TBS) and incubated with a 1:2000 dilution of horseradish peroxidase-conjugated secondary antibody for 2 h at room temperature. The blots were again washed three times with T/TBS, and then developed by enhanced chemiluminescence (GE healthcare, WI, USA). Page 9 of 55
# [2] = tested on: LPS-induced NO production; assay: Inhibition of LPS-induced NO production (nitrite determination) in RAW 264.7 cells; details: LPS-induced RAW 264.7 cells; for inhibition at 1 µM / inhibition at 10 µM: Mus musculus, read-out: Inhibition Rate (%) of NO production; for inhibition at 1 µM: RAW264.7, 1 μM; for inhibition at 10 µM: RAW264.7, 10 μM
# Description: (§2) Upon confirming the non-cytotoxicity of 10 μM concentration of these three derivatives against murine RAW 264.7 macrophages induced by LPS, compounds 1f, 1k, and 1m were tested for inhibitory effect against LPS-induced PGE2 production together with checking their cell viability. […] The fluorine atom can also add some more merits such as formation of an additional hydrogen bond with a hydrogen bond donor in the target protein and stronger hydrophobic interaction by fluorophenyl compared with unsubstituted phenyl. […] Moreover, 1f and 1m were evaluated at 1 and 10 μM for inhibitory effects on LPS-induced NO production.
# (§3) Cell culture and sample treatment, nitrite determination, PGE2 assay, and MTT assay for cell
# (§4) viability have been carried out following the reported procedures [Bioorg. Med. Chem. Lett. […]
# [3] = tested on: RAW 264.7 macrophages; assay: MTT assay for cell viability in RAW 264.7 macrophages; details: 2.5, 5, 10 μM; LPS-induced RAW 264.7 macrophages
# [4] = tested on: LPS-induced PGE2 production; assay: Inhibition of LPS-induced PGE2 production in RAW 264.7 macrophages; details: for inhibition of PGE2 production (in words): 2.5, 5, 10 μM
# Description: as §2, §3, §4
# [5] = tested on: RAW 264.7 macrophages; assay: MTT assay for cell viability in RAW 264.7 macrophages; details: 10 μM; RAW 264.7 macrophages
# Description: as §1
# [6] = tested on: phosphorylation of p38; assay: Western blot of p-p38 in LPS-induced RAW 264.7 macrophages
# Description: (§5) Furthermore, the most promising compound 1m was chosen for a more extensive investigation of its molecular mechanism(s) of action. It was tested for inhibitory effects on COX-2 and iNOS protein expressions (Figure 4).
# (§6) Cell culture and sample treatment, nitrite determination, PGE2 assay, and MTT assay for cell viability have been carried out following the reported procedures [Bioorg. Med. Chem. Lett.
# (§7) RAW 264.7 macrophage cells were re-suspended in PRO-PREPTM protein extraction solution (Intron Biotechnology, Seoul, Korea) and incubated with 20 min at 4 °C. The cell debris was removed by microcentrifugation, and the supernatants were quickly frozen. The protein concentration was determined using the Bio-Rad protein assay reagent according to the manufacture’s instruction. Cellular proteins were electroblotted onto a PVDF membrane following separation on 8-12% SDS-polyacrylamide gel electrophoresis. The immunoblot was incubated with blocking solution (5% skimmed milk) at room temperature for 1 h, followed by incubation overnight with a primary antibody at 4 °C. The blots were washed four times with a Tween 20/Tris-buffered saline (T/TBS) and incubated with a 1:2000 dilution of horseradish peroxidase-conjugated secondary antibody for 2 h at room temperature. The blots were again washed three times with T/TBS, and then developed by enhanced chemiluminescence (GE
# [7] = tested on: COX-2 protein expression; assay: Western blot of COX-2 protein expression in LPS-induced RAW 264.7 macrophages; details: especially at 10 µM
# Description: as §5, §6, §7
# [8] = tested on: iNOS protein expression; assay: Western blot of iNOS protein expression in LPS-induced RAW 264.7 macrophages; details: especially at 10 µM
# Description: as §5, §6, §7
# [9] = LPS-induced RAW 264.7 macrophages
# [10] = Mus musculus, RAW264.7, LPS-induced RAW 264.7 macrophages
smiles,measurement,setting,value
COc1cc(-c2nn(-c3cccc(NC(=O)CN4CCN(c5ccccc5)CC4)c3)cc2-c2ccncc2)ccc1Cl [Compound 1e],viability at 1 µM,[1],87 ± 4.1%
same,viability at 10 µM,[1],65 ± 4.1%
COc1cc(-c2nn(-c3cccc(NC(=O)CCN4CCN(Cc5ccccc5)CC4)c3)cc2-c2ccncc2)ccc1Cl [Compound 1l],viability at 1 µM,[1],86 ± 3.7%
same,viability at 10 µM,[1],34 ± 1.1%
COc1cc(-c2nn(-c3cccc(NC(=O)CN4CCCCC4)c3)cc2-c2ccncc2)ccc1Cl [Compound 1a],viability at 1 µM,[1],99 ± 5.9%
same,viability at 10 µM,[1],10 ± 1.2%
"CC(=N)NCCCC[C@H](N)C(=O)O [L-NIL, reference compound]",Inhibition Rate (%) of NO production,[2]; 1 μM,3.9 ± 2.1%
same,Inhibition Rate (%) of NO production,[2]; 10 μM,31.32 ± 2.9%
COc1cc(-c2nn(-c3cccc(NC(=O)CN4CCN(Cc5ccccc5)CC4)c3)cc2-c2ccncc2)ccc1Cl [Compound 1f],"cytotoxicity (in words), LPS-induced RAW 264.7 cell viability",[3],no cytotoxicity
same,inhibition of PGE2 production (in words),[4]; [9],good inhibition values
same,IC50,[4]; [9],7.1 µM
same,IC50,[4]; [10],7.6 µM
same,inhibition at 5 µM,"[4]; Mus musculus, RAW264.7, 5 μM, LPS-induced RAW 264.7 macrophages",37.4%
same,inhibition at 10 µM,[4]; [10],65.4%
same,Inhibition Rate (%) of NO production,[2]; 10 μM,11.06 ± 1.5%
same,inhibition at 1 µM,[2],0%
same,inhibition at 10 µM,[2],11.6%
same,viability at 1 µM,[1],66 ± 1.8%
same,viability at 10 µM,[1],107 ± 8.5%
same,cytotoxicity (in words),[5],non-cytotoxic
COc1cc(-c2nn(-c3cccc(NC(=O)CCN4CCOCC4)c3)cc2-c2ccncc2)ccc1Cl [Compound 1h],viability at 1 µM,[1],99 ± 2.8%
same,viability at 10 µM,[1],75 ± 1.7%
CCN1CCN(CC(=O)Nc2cccc(-n3cc(-c4ccncc4)c(-c4ccc(Cl)c(OC)c4)n3)c2)CC1 [Compound 1d],viability at 1 µM,[1],75 ± 2.9%
same,viability at 10 µM,[1],3 ± 0.4%
COc1cc(-c2nn(-c3cccc(NC(=O)CN4CCN(C)CC4)c3)cc2-c2ccncc2)ccc1Cl [Compound 1c],viability at 1 µM,[1],78 ± 3.3%
same,viability at 10 µM,[1],5 ± 0.8%
COc1cc(-c2nn(-c3cccc(NC(=O)CN4CCOCC4)c3)cc2-c2ccncc2)ccc1Cl [Compound 1b],viability at 1 µM,[1],92 ± 4.5%
same,viability at 10 µM,[1],65 ± 2.8%
CCN1CCN(CCC(=O)Nc2cccc(-n3cc(-c4ccncc4)c(-c4ccc(Cl)c(OC)c4)n3)c2)CC1 [Compound 1j],viability at 1 µM,[1],98 ± 3.1%
same,viability at 10 µM,[1],5 ± 0.8%
COc1cc(-c2nn(-c3cccc(NC(=O)CCN4CCCCC4)c3)cc2-c2ccncc2)ccc1Cl [Compound 1g],viability at 1 µM,[1],87 ± 3.8%
same,viability at 10 µM,[1],5 ± 1.1%
COc1cc(-c2nn(-c3cccc(NC(=O)CCN4CCN(C)CC4)c3)cc2-c2ccncc2)ccc1Cl [Compound 1i],viability at 1 µM,[1],99 ± 3.4%
same,viability at 10 µM,[1],5 ± 1.8%
COc1cc(-c2nn(-c3cccc(NC(=O)CCN4CCN(c5ccccc5)CC4)c3)cc2-c2ccncc2)ccc1Cl [Compound 1k],"cytotoxicity (in words), LPS-induced RAW 264.7 cell viability",[3],no cytotoxicity
same,inhibition of PGE2 production (in words),[4]; [9],good inhibition values
same,viability at 1 µM,[1],89 ± 2.8%
same,viability at 10 µM,[1],112 ± 7.6%
same,cytotoxicity (in words),[5],non-cytotoxic
COc1cc(-c2nn(-c3cccc(NC(=O)CCN4CCN(Cc5ccc(F)cc5)CC4)c3)cc2-c2ccncc2)ccc1Cl [Compound 1m],effect on phosphorylation of p38 (in words),[6],markedly suppressed
same,effect on COX-2 protein expression (in words),[7],concentration-dependent inhibitory effect
same,"cytotoxicity (in words), LPS-induced RAW 264.7 cell viability",[3],no cytotoxicity
same,inhibition of PGE2 production (in words),[4]; [9],good inhibition values
same,IC50,[4]; [10],1.1 µM
same,inhibition at 2.5 µM,"[4]; Mus musculus, RAW264.7, 2.5 μM, LPS-induced RAW 264.7 macrophages",67%
same,inhibition at 10 µM,[4]; [10],84.9%
same,effect on iNOS protein expression (in words),[8],concentration-dependent inhibitory effect
same,Inhibition Rate (%) of NO production,[2]; 10 μM,37.19 ± 3.4%
same,inhibition at 1 µM,[2],0%
same,inhibition at 10 µM,[2],37%
same,viability at 1 µM,[1],90 ± 4.1%
same,viability at 10 µM,[1],97 ± 3.9%
same,cytotoxicity (in words),[5],non-cytotoxic
